Series [1] is described as follows: Acute oral toxicity (LD50) in rat. To be noted: in vivo, administered orally. How it is done:
With reference to the method of administration, they are normally usable orally for example in the form of tablets, capsules, powders, granules, etc., but can also be administered parenterally in the form of injectable solutions, suppositories, pellets, etc., as the case may be. In the case of their being employed as a therapeutic agent for diabetes, they can be normally administered orally in daily doses of 0.05 mg to 10 mg/kg or parenterally in daily doses of 0.01 mg to 10 mg/kg, per adult human, and in the case of their being utilized as a therapeutic agent for hyperlipemia, they can be normally given orally in daily doses of 0.05 mg to 10 mg/kg or parenterally in daily doses of 0.01 mg to 10 mg/kg, per adult human, whereby it is desirable to administer such quantities once daily or intermittently twice to four times weekly.

A further series relates to KKAy mice. The series can be described thus: Blood sugar- and lipid-lowering activity in mice (test compound 0.005% in diet, 4 days). In kind it is in vivo. As to conditions: Mus musculus, feed or water, 96 h, 0.005% in powder diet, male KKAy mice. How it is done:
Blood sugar- and lipid-lowering activity in mice.
0.005% of a test compound was mixed with a powder diet (CE-2, produced by CLEA JAPAN), and KKAy mice (male, 8 to 10 weeks of age, 5 mice/group) were placed on the diet for 4 days, and allowed free access to water throughout the experiment. Blood samples were taken from the orbital veins and assayed for blood sugar by the glucose oxidase method and for plasma triglyceride by the enzyme method in which the produced glycerol was determined by means of Cleantech TG-S Kit (Yatron), respectively. The respective values are expressed in terms of rate of lowering (%) from the values of control group not receiving the test compound.

The mark [2] stands for this setting: enzyme method (Cleantech TG-S Kit), read-out: Hypolipemic activity (rate of lowering of plasma triglyceride from control group).
[3] abbreviates: glucose oxidase method, read-out: Hypoglycemic activity (rate of lowering of blood sugar from control group).

Like-named read-outs stand apart in the source and are kept apart here.

The term LD50 denotes the dose expected to kill half of the subjects tested. Low values mean greater toxicity, high ones lower toxicity. In turn, `CCc1ccc(C(CO)COc2ccc(CC3SC(=O)NC3=O)cc2)nc1` (stereo not shown) [5-{4-[2-(5-ethyl-2-pyridyl)-3-hydroxypropoxy]benzyl}-2,4-thiazolidinedione] returned a 50% lethal dose (LD50) in series [1] of at least 5000 mg/kg.

Consider `Cc1cccc(C(O)COc2ccc(CC3SC(=O)NC3=O)cc2)n1` (stereo not shown) [Example 1, 5-{4-[2-hydroxy-2-(6-methyl-2-pyridyl)ethoxy]benzyl}-2,4-thiazolidinedione], for which the LD50 in series [1] is at least 5000 mg/kg. In addition, the inhibition in vivo at 0.005 %, 0.005 % in diet in the series on KKAy mice (setting [2]) amounted to 47%; with KKAy mice (setting [3]), 45%.

As for `Cc1cccnc1C(CO)COc1ccc(CC2SC(=O)NC2=O)cc1` (stereo not shown) [Example 2, 5-{4-[3-hydroxy-2-(3-methyl-2-pyridyl)propoxy]-benzyl}-2,4-thiazolidinedione], the LD50 in series [1] is at least 5000 mg/kg. The inhibition in vivo at 0.005 %, 0.005 % in diet in the series on KKAy mice (setting [2]) worked out at 11%; in the series on KKAy mice (setting [3]), 22%.

With `CCc1ccc(C(O)COc2ccc(CC3SC(=O)NC3=O)cc2)nc1` (stereo not shown) [Example 3, 5-{4-[2-(5-ethyl-2-pyridyl)-2-hydroxyethoxy]benzyl}-2,4-thiazolidinedione], in series [1], the LD50 is at least 5000 mg/kg. In addition, the results for the inhibition in vivo at 0.005 %, 0.005 % in diet in the series with KKAy mice (setting [2]) and in the series with KKAy mice (setting [3]) were 35% and 32%, respectively.

As to `CCc1ccc(C(CO)COc2ccc(CC3SC(=O)NC3=O)cc2)nc1` (stereo not shown) [Example 4, 5-{4-[2-(5-ethyl-2-pyridyl)-3-hydroxypropoxy]benzyl}-2,4-thiazolidinedione], the inhibition in vivo at 0.005 %, 0.005 % in diet with KKAy mice (setting [2]) worked out at 38%; in the series with KKAy mice (setting [3]) it was 45%.

`CC(=O)OC(COc1ccc(CC2SC(=O)NC2=O)cc1)c1cccc(C)n1` (stereo not shown) [Example 5, 5-{4-[2-acetoxy-2-(6-methyl-2-pyridyl)ethoxy]benzyl}-2,4-thiazolidinedione] registered an LD50 in series [1] of at least 5000 mg/kg.

Compound `CCc1ccc(C(COC(C)=O)COc2ccc(CC3SC(=O)NC3=O)cc2)nc1` (stereo not shown) [Example 6, 5-{4-[3-acetoxy-2-(5-ethyl-2-pyridyl)propoxy]benzyl}-2,4-thiazolidinedione] showed an LD50 in series [1] of at least 5000 mg/kg.

On to `Cc1cccnc1C(O)COc1ccc(CC2SC(=O)NC2=O)cc1` (stereo not shown) [Example 7, 5-{4-[2-Hydroxy-2-(3-methyl-2-pyridyl)ethoxy]benzyl}-2,4-thiazolidinedione], for which the figures for the inhibition in vivo at 0.005 %, 0.005 % in diet with KKAy mice (setting [2]) and in the series on KKAy mice (setting [3]) were 58% and 53%, respectively.

For the compound `O=C1NC(=O)C(Cc2ccc(OCC(O)c3ccccn3)cc2)S1` (stereo not shown) [Example 8, 5-{4-[2-Hydroxy-2-(2-pyridyl)ethoxy]benzyl}-2,4-thiazolidinedione], the inhibition in vivo at 0.005 %, 0.005 % in diet came to 53% with KKAy mice (setting [2]) and 47% with KKAy mice (setting [3]).

`Cc1ccc(C(O)COc2ccc(CC3SC(=O)NC3=O)cc2)nc1` (stereo not shown) [Example 9, 5-{4-[2-Hydroxy-2-(5-methyl-2-pyridyl)ethoxy]benzyl}-2,4-thiazolidinedione]: the figures for the inhibition in vivo at 0.005 %, 0.005 % in diet in the series on KKAy mice (setting [2]) and in the series with KKAy mice (setting [3]) were 19% and 35%, respectively.

`Cc1cc(C)nc(C(O)COc2ccc(CC3SC(=O)NC3=O)cc2)c1` (stereo not shown) [Example 10, 5-{4-[2-(4,6-dimethyl-2-pyridyl)-2-hydroxyethoxy]benzyl}-2,4-thiazolidinedione]: the inhibition in vivo at 0.005 %, 0.005 % in diet in the series on KKAy mice (setting [2]) came out at 47%; in the series with KKAy mice (setting [3]), 40%.

Values taken from patent US4582839A, “2,4-thiazolidinediones” (Takeda Chemical Industries, Ltd., priority 1985, dated 1986).
